Experimental data as given in patent US9969766B2, “20(R)-ginsenoside Rg3 polyacylated derivatives, preparation and application thereof” (priority 2014, dated 2018).
Like-named read-outs stand apart in the source and are kept apart here.

What was measured:
Settings in all cases: po × 14bid
[1] = system: human lung cancer A549 cells; assay: Human lung cancer A549 (subcutaneous inoculation) metastasis model
[2] = system: human intestinal cancer LOVO cells
Excerpt: (§1) human breast cancer Bcap-37 model, human lung cancer A549 model, human intestinal cancer LOVO model, human stomach cancer MGC model and human liver cancer QGY model, with tumor cell lines being of the second generation or more, mouse B16 melanoma cell line, mouse Lewis lung cancer model, mouse sarcoma s180 model, all passaged and preserved in Pharmacological Division of Shanghai Institute of Pharmaceutical Industry. 3. Experiment Animals Origins: nude mice, 6-week old, 18-22 g/mouse, provided by Laboratory Animal Center of Chinese Academy of Sciences, Shanghai Branch, with certification No. 2001A032. C57BL/6 mice and Kunming mice, 18-22 g/mouse, provided by Laboratory Animal Center of Chinese Academy of Sciences, Shanghai Branch, with certification SYXK (Shanghai) 2004-0015. Gender: male or female, the same gender for each batch in experiment Animal numbers: 10 mice and 10 nude mice for each of positive control group and test group in experiment, and 20 for negative control group. 4. Experiment Design Dose Settings: doses for 20(R)-ginsenoside Rg3 octo-acetate, 20(R)-ginsenoside Rg3 octo-n-butyrate and 20(R)-ginsenoside Rg3 octo-n-propionate were set as high-dose group (0.3 mg/kg/d), medium-dose group (0.06 mg/kg/d), and low-dose group (0.012 mg/kg/d). Dosage regimen: oral administration, twice daily. human tumor model and cell-inoculated mouse model: po×14 bid; mouse tumor-inoculated model: po×10 bid. Control Trial: negative control group: given with the same volume of 5% CMC-Na as the test group, and the same dosage regimen as the test group. positive control group: Cyclophosphamide CTX 30 mg/kg, […] 5. Experiment Method and Key Steps 5.1 Anti-Tumor Test 5.1.1 Subcutaneous Inoculation Model
LOVO intestinal cancer cells (cultured in vitro) of logarithmic growth stage were taken under sterile condition and prepared into cell suspensions of about 1.8×10^7/ml using RPMI1640 culture medium as diluent. The nude mice were subjected to general anesthesia and cut in belly after routine disinfection to belly skin, the spleens were taken out and inoculated with LOVO intestinal cancer cell suspensions (0.05 ml/mouse) and then restored, the incisions were sutured, and the mice were placed in the cages and then put in the laminar flow rack.

mouse Lewis lung cancer = assay: Mouse Lewis lung cancer, toe subcutaneous inoculation, anti-tumor test
Excerpt: as §1
Tumor cells of vigorous growth stage were taken under sterile condition and made into cell suspensions of about 1-2×10^7/ml by homogenization, the suspensions were inoculated subcutaneously at 0.2 ml/mouse in host mice and repeated on the next day according to the experiment design, the animals in each group were slaughtered after about three weeks, the tumors were collected and weighed, and the tumor inhibition rates were calculated according to the following equation: tumor inhibition rate %=[(average tumor weight of control group-average tumor weight of treatment group)/average tumor weight of control group]×100%

SMILES: CC(=O)OC[C@H]1O[C@@H](OC2CC[C@]3(C)C(CC[C@@]4(C)C3C[C@H](OC(C)=O)C3C([C@@](C)(O)CCC=C(C)C)CC[C@@]34C)C2(C)C)[C@H](OC2O[C@H](COC(C)=O)[C@@H](OC(C)=O)[C@H](OC(C)=O)[C@H]2OC(C)=O)[C@@H](OC(C)=O)[C@@H]1OC(C)=O (stereo partly drawn) [Rg3-octo-acetate, 20 (R)-ginsenoside Rg3 octaacetate]
- Anti-metastasis rate % ([1]; 0.012 mg/kg/d): 49.91%
- Lung clone numbers (mice) X ± SD ([1]; 0.012 mg/kg/d): 0.96 ± 0.12
- Anti-metastasis rate % ([1]; 0.06 mg/kg/d): 57.90%
- Lung clone numbers (mice) X ± SD ([1]; 0.06 mg/kg/d): 0.81 ± 0.15
- Anti-metastasis rate % ([1]; 0.3 mg/kg/d): 68.52%
- Lung clone numbers (mice) X ± SD ([1]; 0.3 mg/kg/d): 0.84 ± 0.13
- Average survival (d) X ± SD ([2]; 0.012 mg/kg/d): 24.59 ± 4.5 days
- Life extension rate T/C × % ([2]; 0.012 mg/kg/d): 179.99%
- Average survival (d) X ± SD ([2]; 0.06 mg/kg/d): 25.80 ± 4.8 days
- Life extension rate T/C × % ([2]; 0.06 mg/kg/d): 188.90%
- Average survival (d) X ± SD ([2]; 0.3 mg/kg/d): 31.50 ± 5.1 days
- Life extension rate T/C × % ([2]; 0.3 mg/kg/d): 230.59%
- Tumor inhibition rate % (mouse Lewis lung cancer; 0.012 mg/kg/d): 50.15%
- Tumor-bearing toe weight (g) X ± SD (mouse Lewis lung cancer; 0.012 mg/kg/d): 0.444 ± 0.09 g
- Tumor inhibition rate % (mouse Lewis lung cancer; 0.06 mg/kg/d): 58.89%
- Tumor-bearing toe weight (g) X ± SD (mouse Lewis lung cancer; 0.06 mg/kg/d): 0.366 ± 0.09 g
- Tumor inhibition rate % (mouse Lewis lung cancer; 0.3 mg/kg/d): 71.09%
- Tumor-bearing toe weight (g) X ± SD (mouse Lewis lung cancer; 0.3 mg/kg/d): 0.633 ± 0.08 g
